Experimental data: the supplement of paper PMC10307832

Tests used:
Assay in all cases: relative viability (nuclei count vs DMSO), 5 days (fraction); higher = more cells survive
NCI-H650 = tested on: NCI-H650
In short: (§1)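 Medians of duplicate plates are given as relative viability. That measure is the nuclei count in treated wells divided by the count in vehicle wells. Counts were taken on 4× images of lung cancer cell lines in 1536-well plates, 5 days after pin-tool dosing the day after seeding with one drug alone or a fixed anchor-drug dose plus five library-drug doses (not always all listed) in √10 steps.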

EPLC-272H = tested on: EPLC-272H
In short: as §1

NCI-H2087 = tested on: NCI-H2087
In short: as §1

NCI-H2085 = tested on: NCI-H2085
In short: as §1

LCLC-103H = tested on: LCLC-103H
In short: as §1

CAL-12T = tested on: CAL-12T
In short: as §1

RERF-LC-KJ = tested on: RERF-LC-KJ
In short: as §1

NCI-H2170 = tested on: NCI-H2170
In short: as §1

PC-14 = tested on: PC-14
In short: as §1

SK-MES-1 = tested on: SK-MES-1
In short: as §1

NCI-H647 = tested on: NCI-H647
In short: as §1

NCI-H1395 = tested on: NCI-H1395
In short: as §1

NCI-H3122 = tested on: NCI-H3122
In short: as §1

A-427 = tested on: A-427
In short: as §1

NCI-H1651 = tested on: NCI-H1651
In short: as §1

COR-L 105 = tested on: COR-L 105
In short: as §1

LXF-289 = tested on: LXF-289
In short: as §1

NCI-H1975 = tested on: NCI-H1975
In short: as §1

NCI-H1993 = tested on: NCI-H1993
In short: as §1

NCI-H2023 = tested on: NCI-H2023
In short: as §1

HOP-62 = tested on: HOP-62
In short: as §1

COR-L23 = tested on: COR-L23
In short: as §1

Work on Cc1cnc(-c2cnc(NCCNc3ccc(C#N)cn3)nc2-c2ccc(Cl)cc2Cl)[nH]1 + CC(=O)c1c(C)c2cnc(Nc3ccc(N4CCNCC4)cn3)nc2n(C2CCCC2)c1=O [Palbociclib] (partner 0.5 µM) yielded a relative viability (NCI-H650; first compound 0.08 µM) of 0.311, a relative viability (NCI-H650; first compound 0.253 µM) of 0.334 and a relative viability (NCI-H650; first compound 0.8 µM) of 0.317. The relative viability (NCI-H650; first compound 2.53 µM) was 0.351, the relative viability (EPLC-272H; first compound 0.08 µM) was 0.345 and the relative viability (EPLC-272H; first compound 0.253 µM) was 0.323. The relative viability (EPLC-272H; first compound 0.8 µM) was 0.309, the relative viability (EPLC-272H; first compound 2.53 µM) was 0.373 and the relative viability (NCI-H2087; first compound 0.08 µM) was 0.235. It also gave a relative viability (NCI-H2087; first compound 0.8 µM) of 0.227, a relative viability (NCI-H2087; first compound 2.53 µM) of 0.146 and a relative viability (NCI-H2085; first compound 0.08 µM) of 0.469. It also gave a relative viability (NCI-H2085; first compound 0.253 µM) of 0.509, a relative viability (NCI-H2085; first compound 0.8 µM) of 0.504 and a relative viability (NCI-H2085; first compound 2.53 µM) of 0.561. It also gave a relative viability (LCLC-103H; first compound 0.08 µM) of 0.516, a relative viability (LCLC-103H; first compound 0.253 µM) of 0.475 and a relative viability (LCLC-103H; first compound 0.8 µM) of 0.426. The relative viability (LCLC-103H; first compound 2.53 µM) was 0.507, the relative viability (CAL-12T; first compound 0.08 µM) was 0.43 and the relative viability (CAL-12T; first compound 0.253 µM) was 0.413. It also gave a relative viability (CAL-12T; first compound 0.8 µM) of 0.37, a relative viability (CAL-12T; first compound 2.53 µM) of 0.286 and a relative viability (RERF-LC-KJ; first compound 0.08 µM) of 1.18. For the same compound, the relative viability (RERF-LC-KJ; first compound 0.253 µM) was 0.905, the relative viability (RERF-LC-KJ; first compound 0.8 µM) was 1.01 and the relative viability (RERF-LC-KJ; first compound 2.53 µM) was 0.956. For the same compound, the relative viability (NCI-H2170; first compound 0.08 µM) was 0.429, the relative viability (NCI-H2170; first compound 0.8 µM) was 0.383 and the relative viability (NCI-H2170; first compound 2.53 µM) was 0.371. For the same compound, the relative viability (PC-14; first compound 0.08 µM) was 0.572, the relative viability (PC-14; first compound 0.253 µM) was 0.503 and the relative viability (PC-14; first compound 0.8 µM) was 0.614. The relative viability (PC-14; first compound 2.53 µM) was 0.323, the relative viability (SK-MES-1; first compound 0.08 µM) was 0.363 and the relative viability (SK-MES-1; first compound 0.253 µM) was 0.332. The relative viability (SK-MES-1; first compound 0.8 µM) was 0.379, the relative viability (SK-MES-1; first compound 2.53 µM) was 0.394 and the relative viability (NCI-H647; first compound 0.08 µM) was 0.434. For the same compound, the relative viability (NCI-H647; first compound 0.253 µM) was 0.303, the relative viability (NCI-H647; first compound 0.8 µM) was 0.419 and the relative viability (NCI-H647; first compound 2.53 µM) was 0.393. It also gave a relative viability (NCI-H1395; first compound 0.08 µM) of 0.762, a relative viability (NCI-H1395; first compound 0.253 µM) of 0.619 and a relative viability (NCI-H1395; first compound 0.8 µM) of 0.609. For the same compound, the relative viability (NCI-H1395; first compound 2.53 µM) was 0.65, the relative viability (NCI-H3122; first compound 0.08 µM) was 0.178 and the relative viability (NCI-H3122; first compound 0.8 µM) was 0.181. For the same compound, the relative viability (NCI-H3122; first compound 2.53 µM) was 0.188, the relative viability (A-427; first compound 0.08 µM) was 0.537 and the relative viability (A-427; first compound 0.253 µM) was 0.539. The relative viability (A-427; first compound 0.8 µM) was 0.567, the relative viability (A-427; first compound 2.53 µM) was 0.563 and the relative viability (NCI-H1651; first compound 0.08 µM) was 0.58. For the same compound, the relative viability (NCI-H1651; first compound 0.253 µM) was 0.468, the relative viability (NCI-H1651; first compound 0.8 µM) was 0.504 and the relative viability (NCI-H1651; first compound 2.53 µM) was 0.549. For the same compound, the relative viability (COR-L 105; first compound 0.08 µM) was 0.397, the relative viability (COR-L 105; first compound 0.253 µM) was 0.401 and the relative viability (COR-L 105; first compound 0.8 µM) was 0.382. It also gave a relative viability (COR-L 105; first compound 2.53 µM) of 0.404, a relative viability (LXF-289; first compound 0.08 µM) of 0.66 and a relative viability (LXF-289; first compound 0.253 µM) of 0.565. For the same compound, the relative viability (LXF-289; first compound 0.8 µM) was 0.571, the relative viability (LXF-289; first compound 2.53 µM) was 0.682 and the relative viability (NCI-H1975; first compound 0.08 µM) was 0.69. It also gave a relative viability (NCI-H1975; first compound 0.253 µM) of 0.519, a relative viability (NCI-H1975; first compound 0.8 µM) of 0.487 and a relative viability (NCI-H1975; first compound 2.53 µM) of 0.301. It also gave a relative viability (NCI-H1993; first compound 0.08 µM) of 0.718, a relative viability (NCI-H1993; first compound 0.253 µM) of 0.566 and a relative viability (NCI-H1993; first compound 0.8 µM) of 0.621. For the same compound, the relative viability (NCI-H1993; first compound 2.53 µM) was 0.679, the relative viability (NCI-H2023; first compound 0.08 µM) was 0.41 and the relative viability (NCI-H2023; first compound 0.253 µM) was 0.344. It also gave a relative viability (NCI-H2023; first compound 0.8 µM) of 0.387, a relative viability (NCI-H2023; first compound 2.53 µM) of 0.541 and a relative viability (HOP-62; first compound 0.08 µM) of 0.531. It also gave a relative viability (HOP-62; first compound 0.253 µM) of 0.426, a relative viability (HOP-62; first compound 0.8 µM) of 0.446 and a relative viability (HOP-62; first compound 2.53 µM) of 0.45. It also gave a relative viability (COR-L23; first compound 0.08 µM) of 0.328, a relative viability (COR-L23; first compound 0.253 µM) of 0.266 and a relative viability (COR-L23; first compound 0.8 µM) of 0.272. For the same compound, the relative viability (COR-L23; first compound 2.53 µM) was 0.264.
